Assay results taken from ChEMBL document CHEMBL1146289, “1,5-Biaryl pyrrole derivatives as EP1 receptor antagonists: Structure-activity relationships of 4- and 5-substituted benzoic acid derivatives” (Bioorg Med Chem Lett, 2007).
One block for each compound: values may come before it.

Tests used:
[1] = target: T1, Prostaglandin E2 receptor EP1 subtype (Homo sapiens, UniProt P34995); test: Displacement of [3H]PGE2 from human recombinant EP1 receptor expressed in CHO cell membranes
T1 sequence (P34995 whole entry): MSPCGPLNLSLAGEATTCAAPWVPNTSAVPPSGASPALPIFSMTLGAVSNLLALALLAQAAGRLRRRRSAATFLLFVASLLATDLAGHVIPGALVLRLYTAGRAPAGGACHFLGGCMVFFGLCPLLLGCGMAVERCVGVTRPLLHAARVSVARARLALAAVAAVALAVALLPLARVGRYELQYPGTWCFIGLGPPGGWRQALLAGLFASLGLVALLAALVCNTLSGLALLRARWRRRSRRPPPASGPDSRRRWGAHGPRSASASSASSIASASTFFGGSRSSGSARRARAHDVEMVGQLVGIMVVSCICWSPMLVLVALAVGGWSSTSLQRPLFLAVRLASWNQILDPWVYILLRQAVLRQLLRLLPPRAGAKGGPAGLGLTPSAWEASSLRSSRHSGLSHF

Rattus norvegicus [2] = test: AUC (0-t) in rat at 3 mg/kg, po; type: ADME, organism-based, Plasma; parameters: dose 3 mg/kg, route oral; settings: in vivo
[3] = Cmax in rat at 3 mg/kg, po; type: ADME, organism-based; parameters: dose 3 mg/kg, route oral; settings: in vivo
[4] = Tmax in rat at 3 mg/kg, po; type: ADME, organism-based; parameters: dose 3 mg/kg, route oral; settings: in vivo
Rattus norvegicus [5] = test: Reversal of hypersensitivity in rat FCA model of inflammatory pain at 5 mg/kg, po; type: functional
Rattus norvegicus [6] = organism: Rattus norvegicus; test: Reversal of hypersensitivity in rat FCA model of inflammatory pain; type: functional
[7] = target: T2, Thromboxane A2 receptor (Homo sapiens) (UniProt P21731)
T2 sequence (whole entry): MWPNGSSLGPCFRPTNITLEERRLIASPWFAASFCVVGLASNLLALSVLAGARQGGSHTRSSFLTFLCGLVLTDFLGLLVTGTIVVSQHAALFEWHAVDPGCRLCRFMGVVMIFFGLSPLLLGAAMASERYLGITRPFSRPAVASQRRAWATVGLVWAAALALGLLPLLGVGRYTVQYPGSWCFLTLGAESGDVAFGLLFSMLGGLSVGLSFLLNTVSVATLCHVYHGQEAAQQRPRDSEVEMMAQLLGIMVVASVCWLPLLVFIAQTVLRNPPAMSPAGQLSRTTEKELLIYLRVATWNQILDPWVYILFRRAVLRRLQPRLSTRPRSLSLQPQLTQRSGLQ

Cytochrome P450 2D6 = Cytochrome P450 2D6 (Homo sapiens, UniProt P10635); test: Inhibition of CYP2D6; type: ADME
Cytochrome P450 2D6, sequence (P10635 whole entry): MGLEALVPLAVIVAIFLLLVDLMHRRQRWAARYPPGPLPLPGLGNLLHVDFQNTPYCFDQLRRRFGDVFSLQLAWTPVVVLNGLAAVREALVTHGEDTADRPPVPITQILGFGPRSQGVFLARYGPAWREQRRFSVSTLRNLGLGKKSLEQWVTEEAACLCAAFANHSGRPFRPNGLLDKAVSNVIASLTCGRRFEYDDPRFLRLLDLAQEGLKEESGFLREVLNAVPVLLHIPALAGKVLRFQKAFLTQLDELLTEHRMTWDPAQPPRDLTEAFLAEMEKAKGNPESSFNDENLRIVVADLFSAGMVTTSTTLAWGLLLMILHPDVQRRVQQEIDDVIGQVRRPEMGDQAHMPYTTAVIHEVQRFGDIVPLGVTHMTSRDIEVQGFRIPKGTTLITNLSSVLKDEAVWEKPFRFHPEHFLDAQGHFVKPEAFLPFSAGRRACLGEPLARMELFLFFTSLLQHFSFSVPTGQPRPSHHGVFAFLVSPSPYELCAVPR

Thromboxane A2 receptor = target: T3, Thromboxane A2 receptor (Homo sapiens, UniProt P21731); test: Inhibition of TP receptor
T3 sequence (P21731 whole entry): T2 sequence (whole entry)

[8] = target: T1, Prostaglandin E2 receptor EP1 subtype; test: Inhibition of EP1 receptor expressed in CHO cells assessed as calcium mobilization by FLIPR assay; type: functional, cell-based
Cytochrome P450 2C19 = Cytochrome P450 2C19 (Homo sapiens, UniProt P33261); test: Inhibition of CYP2C19; type: ADME
Cytochrome P450 2C19, sequence (P33261 whole entry): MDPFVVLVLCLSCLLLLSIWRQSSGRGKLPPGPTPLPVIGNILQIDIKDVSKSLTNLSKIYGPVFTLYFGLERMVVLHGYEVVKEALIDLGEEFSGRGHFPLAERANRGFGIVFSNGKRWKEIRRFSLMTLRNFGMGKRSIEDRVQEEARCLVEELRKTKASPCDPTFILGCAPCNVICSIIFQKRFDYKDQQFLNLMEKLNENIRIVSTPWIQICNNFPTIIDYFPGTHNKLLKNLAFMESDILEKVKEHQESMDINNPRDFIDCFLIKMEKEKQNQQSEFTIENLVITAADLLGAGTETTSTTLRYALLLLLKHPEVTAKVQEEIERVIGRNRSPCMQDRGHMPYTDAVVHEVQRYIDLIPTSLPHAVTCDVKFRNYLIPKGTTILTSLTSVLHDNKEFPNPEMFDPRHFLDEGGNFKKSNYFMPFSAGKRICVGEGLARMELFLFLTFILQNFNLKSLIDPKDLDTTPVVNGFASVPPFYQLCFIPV

Cytochrome P450 1A2 = target: T4, Cytochrome P450 1A2 (Homo sapiens, UniProt P05177); test: Inhibition of CYP1A2; type: ADME
T4 sequence (P05177 whole entry): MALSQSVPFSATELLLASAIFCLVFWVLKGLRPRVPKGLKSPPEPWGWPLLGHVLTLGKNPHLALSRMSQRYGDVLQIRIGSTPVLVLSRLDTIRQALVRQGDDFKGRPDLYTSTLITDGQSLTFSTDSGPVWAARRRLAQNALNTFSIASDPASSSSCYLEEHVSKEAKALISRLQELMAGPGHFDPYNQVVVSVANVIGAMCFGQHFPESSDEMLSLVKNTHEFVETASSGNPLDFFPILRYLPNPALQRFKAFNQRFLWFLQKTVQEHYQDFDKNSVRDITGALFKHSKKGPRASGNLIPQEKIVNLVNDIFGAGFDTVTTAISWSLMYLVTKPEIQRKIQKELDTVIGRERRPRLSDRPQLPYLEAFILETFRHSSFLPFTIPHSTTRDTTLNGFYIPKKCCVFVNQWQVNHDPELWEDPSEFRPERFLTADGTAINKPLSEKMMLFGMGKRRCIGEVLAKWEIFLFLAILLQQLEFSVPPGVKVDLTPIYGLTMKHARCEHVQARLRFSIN

Cytochrome P450 3A4 = Cytochrome P450 3A4 (Homo sapiens, UniProt P08684); test: Inhibition of CYP3A4; type: ADME
Cytochrome P450 3A4, sequence (P08684 whole entry): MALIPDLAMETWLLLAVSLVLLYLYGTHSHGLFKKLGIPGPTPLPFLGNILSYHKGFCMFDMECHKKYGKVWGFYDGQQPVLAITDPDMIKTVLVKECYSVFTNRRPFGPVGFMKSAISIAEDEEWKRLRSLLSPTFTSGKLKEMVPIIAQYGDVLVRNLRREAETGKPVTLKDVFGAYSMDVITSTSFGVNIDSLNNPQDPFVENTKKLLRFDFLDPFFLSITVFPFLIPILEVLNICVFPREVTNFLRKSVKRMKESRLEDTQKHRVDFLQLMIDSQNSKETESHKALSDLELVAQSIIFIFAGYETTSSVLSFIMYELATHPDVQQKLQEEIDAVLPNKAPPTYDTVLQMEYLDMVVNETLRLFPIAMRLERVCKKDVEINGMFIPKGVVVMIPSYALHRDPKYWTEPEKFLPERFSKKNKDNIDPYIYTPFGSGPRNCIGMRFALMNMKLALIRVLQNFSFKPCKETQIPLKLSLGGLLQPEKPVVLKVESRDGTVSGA

Cytochrome P450 2C9 = Cytochrome P450 2C9 (Homo sapiens, UniProt P11712); test: Inhibition of CYP2C9; type: ADME
Cytochrome P450 2C9, sequence (P11712 whole entry): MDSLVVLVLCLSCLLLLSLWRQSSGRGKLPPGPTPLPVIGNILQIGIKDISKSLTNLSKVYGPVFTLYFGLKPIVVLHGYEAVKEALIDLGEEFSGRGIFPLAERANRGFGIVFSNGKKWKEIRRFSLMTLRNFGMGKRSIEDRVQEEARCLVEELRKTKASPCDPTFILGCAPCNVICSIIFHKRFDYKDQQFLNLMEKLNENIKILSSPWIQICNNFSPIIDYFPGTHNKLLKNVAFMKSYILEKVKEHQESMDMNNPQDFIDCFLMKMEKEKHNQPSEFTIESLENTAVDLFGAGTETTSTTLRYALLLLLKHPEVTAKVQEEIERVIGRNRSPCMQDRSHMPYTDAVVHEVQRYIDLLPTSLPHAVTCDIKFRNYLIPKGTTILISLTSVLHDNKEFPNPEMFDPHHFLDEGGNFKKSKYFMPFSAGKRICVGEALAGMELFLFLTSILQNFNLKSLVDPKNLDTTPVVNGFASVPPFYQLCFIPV

[9] = target: Prostaglandin E2 receptor EP4 subtype (Homo sapiens, UniProt P35408); test: Inhibition of EP4 receptor
Prostaglandin E2 receptor EP4 subtype, sequence (P35408 whole entry): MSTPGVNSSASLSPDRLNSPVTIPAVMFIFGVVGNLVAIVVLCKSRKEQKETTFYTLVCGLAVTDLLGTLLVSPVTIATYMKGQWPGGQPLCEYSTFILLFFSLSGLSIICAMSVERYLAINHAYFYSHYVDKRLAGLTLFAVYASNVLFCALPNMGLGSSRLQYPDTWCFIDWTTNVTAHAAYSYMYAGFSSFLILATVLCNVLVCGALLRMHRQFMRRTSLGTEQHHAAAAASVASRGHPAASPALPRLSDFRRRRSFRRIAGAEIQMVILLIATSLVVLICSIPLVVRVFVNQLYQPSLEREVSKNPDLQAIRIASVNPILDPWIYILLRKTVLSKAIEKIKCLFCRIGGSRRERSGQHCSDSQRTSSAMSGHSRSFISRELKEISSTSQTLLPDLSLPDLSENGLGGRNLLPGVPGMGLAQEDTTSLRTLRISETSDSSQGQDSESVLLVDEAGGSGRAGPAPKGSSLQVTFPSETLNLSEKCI

[10] = target: T5, Prostaglandin E2 receptor EP3 subtype (Homo sapiens, UniProt P43115); test: Inhibition of EP3 receptor expressed in CHO cells assessed as calcium mobilization by FLIPR assay; type: functional, cell-based
T5 sequence (P43115 whole entry): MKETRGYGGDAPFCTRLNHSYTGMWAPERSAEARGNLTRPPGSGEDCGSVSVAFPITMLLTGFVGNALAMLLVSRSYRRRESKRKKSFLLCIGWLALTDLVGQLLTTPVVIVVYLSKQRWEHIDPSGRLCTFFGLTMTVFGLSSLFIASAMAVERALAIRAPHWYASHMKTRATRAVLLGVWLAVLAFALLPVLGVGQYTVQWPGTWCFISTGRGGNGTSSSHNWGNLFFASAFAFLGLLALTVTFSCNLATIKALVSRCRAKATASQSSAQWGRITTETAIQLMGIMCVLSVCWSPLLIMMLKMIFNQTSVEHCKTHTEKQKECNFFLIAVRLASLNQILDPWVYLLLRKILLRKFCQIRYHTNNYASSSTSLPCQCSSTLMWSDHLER

SMILES: Cc1ccc(-c2cc(Br)ccc2OCc2ccc(F)cc2F)n1-c1cc(N)cc(C(=O)O)c1
AUC (Rattus norvegicus [2]): < 1 kg·min/L
Cmax [3]: 50 nM
IC50 [1]: 0.501 nM
Tmax [4]: 30 min

SMILES: CC(=O)Nc1cc(C(=O)O)cc(-n2c(C)ccc2-c2cc(Br)ccc2OCc2ccccc2)c1
IC50 [1]: 1.26 nM

SMILES: CC(=O)Nc1cc(C(=O)O)cc(-n2c(C)ccc2-c2cc(Cl)ccc2OCc2ccc(F)cc2)c1
AUC (Rattus norvegicus [2]): 20 kg·min/L
Cmax [3]: 2080 nM
IC50 [1]: 2.51 nM
Tmax [4]: 30 min
Activity (Rattus norvegicus [5]): 94%

SMILES: Cc1ccc(-c2cc(Cl)ccc2OCc2ccccc2)n1-c1cc(Br)cc(C(=O)O)c1
AUC (Rattus norvegicus [2]): 6 kg·min/L
Cmax [3]: 310 nM
IC50 [1]: 5.01 nM
Tmax [4]: 30 min

SMILES: CC(=O)Nc1cc(C(=O)O)cc(-n2c(C)ccc2-c2cc(F)ccc2OCc2ccc(F)cc2)c1
AUC (Rattus norvegicus [2]): 60 kg·min/L
Cmax [3]: 2950 nM
IC50 [1]: 3.98 nM
Tmax [4]: 30 min
Activity (Rattus norvegicus [5]): 55%

SMILES: Cc1ccc(-c2cc(Br)ccc2OCc2ccc(F)cc2)n1-c1cc(C(=O)O)ccc1F
AUC (Rattus norvegicus [2]): 6 kg·min/L
Cmax [3]: 230 nM
IC50 [1]: 6.31 nM
Tmax [4]: 30 min

SMILES: COc1ccc(C(=O)O)cc1-n1c(C)ccc1-c1cc(Cl)ccc1OCc1ccccc1
IC50 [1]: 251 nM

SMILES: Cc1ccc(-c2cc(Cl)ccc2OCc2ccc(F)cc2F)n1-c1cc(C(=O)O)ccc1F
AUC (Rattus norvegicus [2]): 4 kg·min/L
Cmax [3]: 230 nM
IC50 [1]: 6.31 nM
Tmax [4]: 30 min

SMILES: Cc1ccc(-c2cc(C(F)(F)F)ccc2OCc2ccccc2)n1-c1cc(C(=O)O)ccc1F
IC50 [1]: 6.31 nM

SMILES: CC(=O)N(C)c1cc(C(=O)O)cc(-n2c(C)ccc2-c2cc(Br)ccc2OCc2ccc(F)cc2F)c1
IC50 [1]: 1.26 nM

SMILES: CCOc1ccc(C(=O)O)cc1-n1c(C)ccc1-c1cc(Cl)ccc1OCc1ccccc1
IC50 [1]: 126 nM

SMILES: Cc1ccc(-c2cc(Br)ccc2OCc2ccc(F)cc2F)n1-c1cc(C(=O)O)cc(N2CCCCC2=O)c1
IC50 [1]: 1.26 nM

SMILES: Cc1ccc(-c2cc(Cl)ccc2OCc2ccc(F)cc2F)n1-c1cc(Cl)cc(C(=O)O)c1
IC50 [1]: 3.98 nM

SMILES: Cc1ccc(-c2cc(Cl)ccc2OCc2ccc(F)cc2)n1-c1cc(NS(C)(=O)=O)cc(C(=O)O)c1
IC50 [1]: 1.58 nM

SMILES: Cc1ccc(-c2cc(Cl)ccc2OCc2ccc(F)cc2F)n1-c1cc(C(=O)O)ccc1Cl
IC50 [1]: 158 nM

SMILES: Cc1ccc(-c2cc(Br)ccc2OCc2ccccc2)n1-c1cc(N)cc(C(=O)O)c1
IC50 [1]: 3.16 nM

SMILES: Cc1ccc(-c2cc(Br)ccc2OCc2ccc(F)cc2F)n1-c1cc(C(=O)O)cc(C(F)(F)F)c1
IC50 [1]: 12.6 nM

SMILES: Cc1ccc(-c2cc(Cl)ccc2OCc2ccccc2)n1-c1cc(N)cc(C(=O)O)c1
IC50 [1]: 3.98 nM

SMILES: Cc1ccc(-c2cc(Cl)ccc2OCc2ccccc2)n1-c1cc(C(=O)O)cc(N2CCCS2(=O)=O)c1
IC50 [1]: 5.01 nM

SMILES: Cc1ccc(-c2cc(Br)ccc2OCc2ccc(F)cc2F)n1-c1cc(Cl)cc(C(=O)O)c1
IC50 [1]: 3.98 nM

More lines, main results first:

IC50 [1]: 0.794 nM
SMILES: CC(=O)Nc1cc(C(=O)O)cc(-n2c(C)ccc2-c2cc(Br)ccc2OCc2ccc(F)cc2)c1

IC50 [1]: 316 nM
SMILES: Cc1ccc(-c2cc(Cl)ccc2OCc2ccc(F)cc2)n1-c1cc(C(=O)O)ccc1Cl

IC50 [1]: 1.58 nM
SMILES: CC(=O)Nc1cc(C(=O)O)cc(-n2c(C)ccc2-c2cc(I)ccc2OCc2ccc(F)cc2F)c1

IC50 [1]: 5.01 nM
SMILES: COC(=O)Nc1cc(C(=O)O)cc(-n2c(C)ccc2-c2cc(Cl)ccc2OCc2ccccc2)c1

Cmax [3]: 20 nM
IC50 [1]: 1.26 nM
Tmax [4]: 42 min
SMILES: CC(=O)Nc1cc(C(=O)O)cc(-n2c(C)ccc2-c2cc(C(F)(F)F)ccc2OCc2ccccc2)c1

AUC (Rattus norvegicus [2]): 8 kg·min/L
Cmax [3]: 580 nM
IC50 [1]: 2 nM
Tmax [4]: 30 min
SMILES: CC(=O)Nc1cc(C(=O)O)cc(-n2c(C)ccc2-c2cc(Cl)ccc2OCc2ccccc2)c1

AUC (Rattus norvegicus [2]): 21 kg·min/L
pKb [7]: 9
Cmax [3]: 1410 nM
IC50 (Cytochrome P450 2D6): ≥ 18000 nM
IC50 (Thromboxane A2 receptor): 2.51 nM
Ki [8]: 0.1 nM
IC50 (Cytochrome P450 2C19): ≥ 18000 nM
IC50 (Cytochrome P450 1A2): ≥ 18000 nM
IC50 [1]: 0.398 nM
IC50 (Cytochrome P450 3A4): ≥ 18000 nM
IC50 (Cytochrome P450 2C9): ≥ 18000 nM
Tmax [4]: 30 min
IC50 [9]: 158 nM
Ki [10]: 501 nM
SMILES: CC(=O)Nc1cc(C(=O)O)cc(-n2c(C)ccc2-c2cc(Br)ccc2OCc2ccc(F)cc2F)c1
ED50 (Rattus norvegicus [6]): 1.1 mg/kg
Activity (Rattus norvegicus [5]): 72%

IC50 [1]: 7.94 nM
SMILES: Cc1ccc(-c2cc(C(F)(F)F)ccc2OCc2ccc(F)cc2)n1-c1cc(C(=O)O)cc(N2CCCS2(=O)=O)c1

IC50 [1]: 10 nM
SMILES: Cc1ccc(-c2cc(Cl)ccc2OCc2ccc(F)cc2F)n1-c1cc(C(=O)O)cc(C(F)(F)F)c1

IC50 [1]: 5.01 nM
SMILES: Cc1ccc(-c2cc(Cl)ccc2OCc2ccc(F)cc2F)n1-c1cc(Br)cc(C(=O)O)c1

IC50 [1]: 2 nM
SMILES: Cc1ccc(-c2cc(Br)ccc2OCc2ccc(F)cc2F)n1-c1cc(C(=O)O)cc(N2CCCC2=O)c1
